Test system: pERK in DLD1 cells
Assay: ERK phosphorylation assay after EGF stimulation
Assay type: cell-based
Settings: Homo sapiens, DLD-1, compound 2 h, 200 ng/ml hEGF 5 minutes, alphascreen pERK, read-out: ERK phosphorylation inhibition IC50
Description: Example-128: ERK Phosphorylation Assay Protocol
Compounds were tested for their ability to inhibit pERK after EGF stimulation in DLD1 cells. Cells were seeded at 0.2 million cells per well in 96 well cell binding tissue culture plate in 100 μL complete media and were allowed to settle overnight (16 to 20 h). On the following day, cells were treated with various concentrations of test compounds for 2 h followed by stimulation with 200 ng/ml hEGF (diluted in PBS) for 5 minutes. Cells were then washed once with PBS and lysed in freshly prepared lysis buffer (provided with alphascreen surefire ERK1/2 p-T202/Y204 assay kit, cat no: TGRESB10K, Perkin Elmer). Lysis was carried out in plate shaker for 10-15 mins. Lysate was transferred to […] white opti-plate (Perkin Elmer) and alphascreen for pERK was carried out as per manufacturer's instructions. Plate was read after 2 h incubation in plate shaker at […] 300 RPM, 25-28° C.

IC50 | Structure (SMILES)
1 to 200 nM | Cc1nc(N[C@H](C)c2cccc(C(F)(F)C(C)(C)O)c2F)c2cc(N3CCNC(=O)C3)c3c(c2n1)CCC3 [Compound 66, (R)-4-(4-((1-(3-(1,1-difluoro-2-hydroxy-2-methylpropyl)-2-fluorophenyl)ethyl)amino)-2-methyl-8,9-dihydro-7H-cyclopenta[h]quinazolin-6-yl)piperazin-2-one]
1 to 200 nM | Cc1nc(N[C@H](C)c2cccc(C(F)(F)CCO)c2F)c2cc(N3CC4(COC4)C3)c3c(c2n1)CCC3 [Compound 70, (R)-3,3-difluoro-3-(2-fluoro-3-(1-((2-methyl-6-(2-oxa-6-azaspiro[3.3]heptan-6-yl)-8,9-dihydro-7H-cyclopenta[h]quinazolin-4-yl)amino)ethyl)phenyl) propan-1-ol]
1 to 200 nM | Cc1nc(NC(C)c2cccc(C(F)(F)F)c2F)c2cc(N3CC4(COC4)C3)c3c(c2n1)CCC3 (single isomer, unassigned) [Compound 34, N-(1-(2-fluoro-3-(trifluoromethyl)phenyl)ethyl)-2-methyl-6-(2-oxa-6-azaspiro[3.3]heptan-6-yl)-8,9-dihydro-7H-cyclopenta[h]quinazolin-4-amine]
1 to 200 nM | Cc1nc(N[C@H](C)c2cccc(C(F)(F)CO)c2F)c2cc(N3CCO[C@@H](CO)C3)c3c(c2n1)CCC3 [Compound 86, 2,2-difluoro-2-(2-fluoro-3-((R)-1-((6-((R)-2-(hydroxymethyl)morpholino)-2-methyl-8,9-dihydro-7H-cyclopenta[h]quinazolin-4-yl)amino)ethyl)phenyl)ethan-1-ol]
1 to 200 nM | COC[C@H]1CN(c2cc3c(NC(C)c4cccc(C(F)(F)CO)c4C)nc(C)nc3c3c2CCC3)CCO1 (single isomer, unassigned) [Compound 42]
201 to 500 nM | Cc1nc(N[C@H](C)c2cccc(C(F)(F)C(C)(C)O)c2F)c2cc(-c3ccc(=O)n(C)c3)c3c(c2n1)N(C)C(=O)C(C)(C)O3 [Compound 122, (R)-4-((1-(3-(1,1-difluoro-2-hydroxy-2-methylpropyl)-2-fluorophenyl)ethyl)amino)-2,8,8,10-tetramethyl-6-(1-methyl-6-oxo-1,6-dihydropyridin-3-yl)-8H-[1,4]oxazino[2,3-h]quinazolin-9(10H)-one]
1 to 200 nM | Cc1nc(N[C@H](C)c2cc(N)cc(C(F)(F)F)c2)c2cc(O[C@H]3CCOC3)c3c(c2n1)CC(C)O3 (mixture of isomers) [Compound 118a, (R/S)—N—((R)-1-(3-amino-5-(trifluoromethyl)phenyl)ethyl)-2,8-dimethyl-6-(((S)-tetrahydrofuran-3-yl)oxy)-8,9-dihydrofuro[2,3-h]quinazolin-4-amine]
201 to 500 nM | Cc1nc(N[C@H](C)c2cc(N)cc(C(F)(F)F)c2)c2cc(C3CCN(C(=O)C4CC4)CC3)c3c(c2n1)CCC3 [Compound 100, (R)-(4-(4-((1-(3-amino-5-(trifluoromethyl)phenyl)ethyl)amino)-2-methyl-8,9-dihydro-7H-cyclopenta[h]quinazolin-6-yl)piperidin-1-yl)(cyclopropyl)methanone]
201 to 500 nM | Cc1nc(N[C@H](C)c2cc(N)cc(C(F)(F)F)c2)c2cc(C3CCOCC3)c3c(c2n1)CCC3 [Compound 104, (R)—N-(1-(3-amino-5-(trifluoromethyl)phenyl)ethyl)-2-methyl-6-(tetrahydro-2H-pyran-4-yl)-8,9-dihydro-7H-cyclopenta[h]quinazolin-4-amine]
1 to 200 nM | Cc1nc(N[C@H](C)c2cccc(C(F)(F)CO)c2F)c2cc(N3CC[C@](C)(O)C3)c3c(c2n1)CCC3 (single isomer, unassigned) [Compound 67a]
1 to 200 nM | Cc1nc(NC(C)c2cc(N)cc(C(F)F)c2)c2cc(N3CC4(COC4)C3)c3c(c2n1)CC(C)(C)O3 (racemic) [Compound 116, (R/S)—N-(1-(3-amino-5-(difluoromethyl)phenyl)ethyl)-2,8,8-trimethyl-6-(2-oxa-6-azaspiro[3.3]heptan-6-yl)-8,9-dihydrofuro[2,3-h]quinazolin-4-amine]
1 to 200 nM | Cc1nc(N[C@H](C)c2cc(N)cc(C(F)(F)F)c2)c2cc(C3CCC(O)CC3)c3c(c2n1)CCC3 (stereo partly drawn) [Compound 125, (R)-4-(4-((1-(3-amino-5-(trifluoromethyl)phenyl)ethyl)amino)-2-methyl-8,9-dihydro-7H-cyclopenta[h]quinazolin-6-yl)cyclohexan-1-ol]
201 to 500 nM | Cc1nc(NC(C)c2cccc(C(C)(C)CO)c2)c2cc(N3CC4(COC4)C3)c3c(c2n1)CCC3 (single isomer, unassigned) [Compound 6, 2-methyl-2-(3-(1-((2-methyl-6-(2-oxa-6-azaspiro[3.3]heptan-6-yl)-8,9-dihydro-7H-cyclopenta[h]quinazolin-4-yl)amino)ethyl)phenyl)propan-1-ol]
201 to 500 nM | Cc1nc(NC(C)c2cccc(C(=O)C(F)(F)F)c2)c2cc(N3CCOCC3)c3c(c2n1)CCC3 (racemic) [Compound 120, (R/S)-2,2,2-trifluoro-1-(3-(1-((2-methyl-6-morpholino-8,9-dihydro-7H-cyclopenta[h]quinazolin-4-yl)amino)ethyl)phenyl)ethan-1-one]
201 to 500 nM | Cc1nc(N[C@H](C)c2cc(N)cc(C(F)(F)F)c2)c2cc(C3CCC(=O)CC3)c3c(c2n1)CCC3 [Compound 124, (R)-4-(4-((1-(3-amino-5-(trifluoromethyl)phenyl)ethyl)amino)-2-methyl-8,9-dihydro-7H-cyclopenta[h]quinazolin-6-yl)cyclohexan-1-one]
201 to 500 nM | Cc1cc(N)cc(C(C)Nc2nc(C)nc3c4c(c(N5CCOCC5)cc23)CCC4)c1 (single isomer, unassigned) [Compound 80, N-(1-(3-amino-5-methylphenyl)ethyl)-2-methyl-6-morpholino-8,9-dihydro-7H-cyclopenta[h]quinazolin-4-amine]
201 to 500 nM | Cc1nc(N[C@H](C)c2cccc(C(F)(F)C(C)(C)O)c2F)c2cc(N3CC[C@](C)(O)C3)c3c(c2n1)CCC3 (single isomer, unassigned) [Compound 61b]
1 to 200 nM | Cc1nc(N[C@H](C)c2cc(N)cc(C(F)(F)F)c2)c2cc(N3CCC4(CCCO4)CC3)c3c(c2n1)CCC3 [Compound 13, (R)—N-(1-(3-amino-5-(trifluoromethyl)phenyl)ethyl)-2-methyl-6-(1-oxa-8-azaspiro[4.5]decan-8-yl)-8,9-dihydro-7H-cyclopenta[h]quinazolin-4-amine]
201 to 500 nM | COC[C@@H]1CN(c2cc3c(N[C@H](C)c4cc(N)cc(C(F)(F)F)c4)nc(C)nc3c3c2CCC3)CCO1 [Compound 32, N—((R)-1-(3-amino-5-(trifluoromethyl)phenyl)ethyl)-6-((S)-2-(methoxymethyl)morpholino)-2-methyl-8,9-dihydro-7H-cyclopenta[h]quinazolin-4-amine]
1 to 200 nM | CC(=O)N1CCC(c2cc3c(N[C@H](C)c4cc(N)cc(C(F)(F)F)c4)nc(C)nc3c3c2CCCC3)CC1 [Compound 105, (R)-1-(4-(4-((1-(3-amino-5-(trifluoromethyl)phenyl)ethyl)amino)-2-methyl-7,8,9,10-tetrahydrobenzo[h]quinazolin-6-yl)piperidin-1-yl)ethan-1-one]
201 to 500 nM | COCC1CN(c2cc3c(N[C@H](C)c4cccc(C(F)(F)CO)c4F)nc(C)nc3c3c2CCC3)C1 [Compound 9, (R)-2,2-difluoro-2-(2-fluoro-3-(1-((6-(3-(methoxymethyl)azetidin-1-yl)-2-methyl-8,9-dihydro-7H-cyclopenta[h]quinazolin-4-yl)amino)ethyl)phenyl)ethan-1-ol]
201 to 500 nM | Cc1nc(N[C@H](C)c2cccc(C(F)(F)C(C)(C)O)c2F)c2cc(N3CCOCC3=O)c3c(c2n1)CCC3 [Compound 123, (R)-4-(4-((1-(3-(1,1-difluoro-2-hydroxy-2-methylpropyl)-2-fluorophenyl)ethyl)amino)-2-methyl-8,9-dihydro-7H-cyclopenta[h]quinazolin-6-yl)morpholin-3-one]
1 to 200 nM | CC(=O)N1CC=C(c2cc3c(N[C@H](C)c4cc(N)cc(C(F)(F)F)c4)nc(C)nc3c3c2CCC3)CC1 [Compound 90, (R)-1-(4-(4-((1-(3-amino-5-(trifluoromethyl)phenyl)ethyl)amino)-2-methyl-8,9-dihydro-7H-cyclopenta[h]quinazolin-6-yl)-3,6-dihydropyridin-1(2H)-yl)ethan-1-one]
1 to 200 nM | Cc1nc(NC(C)c2cccc(C(F)(F)CO)c2C)c2cc(N3CC4(COC4)C3)c3c(c2n1)CCC3 (single isomer, unassigned) [Compound 41, 2,2-difluoro-2-(2-methyl-3-(1-((2-methyl-6-(2-oxa-6-azaspiro[3.3]heptan-6-yl)-8,9-dihydro-7H-cyclopenta[h]quinazolin-4-yl)amino)ethyl)phenyl)ethan-1-ol]
1 to 200 nM | CC(=O)N1CCC(c2cc3c(N[C@H](C)c4cc(N)cc(C(F)(F)F)c4)nc(C)nc3c3c2CCC3)CC1 [Compound 102, (R)-1-(4-(4-((1-(3-amino-5-(trifluoromethyl)phenyl)ethyl)amino)-2-methyl-8,9-dihydro-7H-cyclopenta[h]quinazolin-6-yl)piperidin-1-yl)ethan-1-one]

From US12435066B2, “Substituted tricyclic compounds” (LUPIN LIMITED, priority 2019, dated 2025)
